The nature of series [1]: Crystal size and habit by optical microscopy and SEM after bulk crystallization with additive. Particulars: for L-cystine crystal habit in the presence of additive: hexagonal platelets without additive. As to the method:
Various proteins, poly-amino acids, and molecular mimics of L-cystine were examined as additives. The aforementioned procedure for hexagonal platelet crystallization was repeated. Following the 75 min cooling period, prior to any observable crystallization, the additive was added to the supersaturated L-cystine solution to the desired concentration. The container was sealed and stored for 72 hours at room temperature without stirring, after which the precipitate was collected by vacuum filtration (Whatman Grade 1 filters, >11 μm pores) and were air dried prior to analysis. Crystallization without additive was performed in an identical manner for comparison using a control solution from the same batch. The mass yields of L-cystine crystals were obtained by dividing the mass of L-cystine crystals (collected from growth solution by filtration) by the mass of L-cystine added in the growth solution. The crystals were isolated with 11 μm-pore filters, which were regarded as sufficiently small for reliable capture of the crystals (optical micrographs reveal that the size of crystals was always greater than 50 μm
An Orion 3 Star pH meter (Thermo Electron Corp.) with Orion 9157BNMD probe was used to measure the pH of L-cystine solutions. Crystal morphology was measured with a Leitz ERGOLUZ optical microscope and a Hitachi 3500 scanning electron microscopy. A thin coating of gold (2 nm) was sputtered on SEM samples and images were acquired at low voltage (2-5 kV) to minimize sample melting. ^1H NMR spectra were recorded using a Bruker AVANCE 400 spectrometer and were routinely run using broadband decoupling. Chemical shifts (δ), expressed in ppm, are referenced to the corresponding residual nuclei in deuterated solvent (D2O). Powder X-ray diffraction (XRD) patterns of isolated crystals were acquired with a Panalytical XPert PRO MPD using a Bragg-Brentano geometry with fixed slits at power settings of 45 kV and 40 mA. A CuKa radiation (0.154 nm) source was used with a 1 degree fixed divergence slit (10 mm beam mask) for incident X-rays and a 1 degree anti-scatter slit Ni filter ( 1/16 degree receiving slit) for diffracted X-rays.

Series [2] can be described thus: Bulk crystallization of L-cystine in the presence of additives (mass yield). As to the method: Alternately, the hexagonal crystals can be obtained by crystallization performed near neutral pH (Sa) The hexagonal form was crystallized from a supersaturated L-cystine solution prepared by adding 70 mg of L-cystine to 100 mL of deionized water (3 mM), and heating under reflux at 100° C. for 20 min with stirring to completely dissolve L-cystine. […] This concentration was used for bulk crystallization studies in the presence of additives so that a measurable amount of bulk crystals could be obtained in a reasonable time. The solution was then allowed to cool slowly with stirring for 75 min. 30 mL aliquots were transferred to separate glass containers, which were then sealed to prevent evaporation and exposure to airborne particulates and stored for 72 hours at room temperature without stirring. […] The crystals retrieved in this manner were used for AFM studies by mounting individual crystals according to the procedure described below.
Various proteins, poly-amino acids, and molecular mimics of L-cystine were examined as additives. The aforementioned procedure for hexagonal platelet crystallization was repeated. Following the 75 min cooling period, prior to any observable crystallization, the additive was added to the supersaturated L-cystine solution to the desired concentration. […] Crystallization without additive was performed in an identical manner for comparison using a control solution from the same batch. The mass yields of L-cystine crystals were obtained by dividing the mass of L-cystine crystals (collected from growth solution by filtration) by the mass of L-cystine added in the growth solution.
Additives chosen for these studies were various proteins, poly-amino acids, and molecular mimics of L-cystine (see Table 1). The above procedure for hexagonal platelet crystallization was repeated until completion of the 75 min cooling period, at which point 29.5 g of solution was transferred to a 100 mL beaker containing 0.5 g of separately prepared additive solution to yield net concentrations of 2 mg/L additive and 0.7 g/L L-cystine. Additive solutions were replaced with deionized water of equivalent volume for control measurements. […]
L-cystine bulk crystallization was investigated in the presence of various polymers, urinary constituents, fish antifreeze proteins (AFPs), and L-cystine derivatives (i.e. structural mimics of L-cystine), which were analyzed as possible growth inhibitors of hexagonal L-cystine. The potency of each additive was assessed by comparing the difference in crystal yield (Table 1), which is equal to the mass of crystals formed in the presence of 2 mg/L additive (isolated with […]) divided by the total mass of L-cystine (700 mg/L).

Series [3] is described as follows: Real time in situ AFM step velocity measurements, static conditions. Particulars: 5 g/L cystamine. The method, then:
A Digital Instruments (Santa Barbara, Calif.) Nanoscope IIIa Multimode system was used for topographical and lattice imaging. All measurements were performed in contact mode using Veeco NP_B Si3N4 cantilever tips with a spring constant of 0.12N/m (triangular, 196 μm length, 41 μm width) on a glass cantilever holder, and a liquid cell was created for in situ step velocity measurements. All L-cystine crystals for AFM measurements were prepared by method 1. Crystals were transferred onto an AFM specimen disk coated with partially cured (1 hr) UV-curable optical cement (Type SK-9, EMS Acquisition Corp.) by gently pressing the disk against hexagonal platelets or L-cystine needles isolated by filtration (Whatman Nuclepore membrane, 8 μm). The (0001) face of hexagonal platelets was exposed normal to the disk for AFM analysis with growth occurring along equivalent {1010} faces in the lateral directions, while the sides of L-cystine needles were exposed normal to the disc. The partially cured polymer with adhered crystals was completely cured by additional UV radiation (2 hrs) prior to analysis. Measurements of individual step heights for hexagonal L-cystine crystals were acquired in air (contact mode) at a scan rate of 1.00 Hz and 256 samples per line over a 15×15 μm^2 surface area. Integral and proportional gains were set to the highest possible values without obtaining feedback. Four hexagonal crystals (5 areas per crystal) were analyzed for statistical step height distributions, which were calculated from >10^3 individual steps. Lattice-resolved images of crystal surfaces were acquired in water (contact mode) using a scan rate of 112 Hz over a 12×12 nm^2 area.
Real time in situ step velocity measurements of L-cystine growth were assessed along six structurally-equivalent {1010} faces of the hexagonal structure. A liquid cell was created with the glass cantilever tip holder, and working solutions were injected through a 1-mL syringe. Prior to injecting the growth medium (i.e. supersaturated L-cystine solution), crystals were etched with deionized water in the fluid cell for one hour to remove amorphous deposits or impurities that may be present on the surface. Supersaturated solutions (0.5 g/L) were generated by adding L-cystine to deionized water, boiling the solution on a heating mantle for 20 min to completely dissolve the solute, and allowing the solution to cool for 20 min on the heating mantle before transferring the solution (via syringe) to the AFM fluid cell. […]
The effect of additives on crystal growth rates was investigated. […] For each measurement, growth was first assessed in the absence of additive, then in the presence of additive on the identical area of the crystal surface to analyze relative changes in step velocity. […]

Series [4] can be described thus: AFM step velocity and hillock imaging with L-cystine diesters under continuous flow. The following applies: 0.015 mM inhibitor, 2 mM L-cystine. As to the method:
Atomic force microscopy was performed with a Digital Instruments (Santa Barbara, Calif.) Nanoscope Ma Multimode system. All measurements were performed in a cell designed to contain liquids for in situ imaging, including step velocity measurements. All measurements were performed in contact mode using Veeco NP_B Si3N4 tips on silicon nitride cantilevers with a spring constant of 0.12N/m (triangular, 196 μm length, 41 μm width). L-cystine crystals (hexagonal form) were transferred onto an AFM specimen disk coated with partially cured (1 hr) UV-curable optical cement (Type SK-9, EMS Acquisition Corp.) by gently pressing the disk against hexagonal platelets collected by filtration (Whatman Nuclepore membrane, 8 μm). The (001) faces of the hexagonal plates naturally aligned parallel with the specimen disk such that the velocity of the equivalent {100} steps could be measured readily by AFM. The partially cured polymer with the adhered crystals was cured completely by additional UV radiation (2 hrs) prior to analysis. The mounted L-cystine crystals were etched slightly by immersion in deionized water for 30 sec at 60° C. to remove amorphous deposits or impurities that may be present on the surface. Step velocities on the hexagonal L-cystine crystals were measured by AFM using a fluid cell containing an aqueous solution, supersaturated with L-cystine (2 mM), introduced to the cell via a syringe. Step velocities were determined by measuring the distance of the steps from a reference point, usually the dislocation core, in consecutive deflection images acquired at periodic intervals, ranging from 9-14 sec. Measurements were acquired under continuous flow of fresh solution in order to maintain constant supersaturation and additive concentration. […] The step velocities, which correspond to the crystal growth rates, were measured with and without inhibitor for each pair.

The conditions of series [5]: pH 7, 25° C.; cited from earlier work.
Where [6] appears, read: 2 mg/L additive, 0.7 g/L L-cystine (pH 6.8), no additive 80, approximate error ±8%.
Where [7] appears, read: 10 mg/L L-cysteine methylester, 700 mg/L L-cystine.

Molecules are shown by their SMILES. Structures can show the parent of a compound that is named as a salt. Marks after values point to notes of the source that are not given here.

In the case of `COC(=O)[C@@H](N)CSSC[C@H](N)C(=O)O` [CME, L-Cystine Methyl Ester], in series [1], the “needle volume less than hexagonal platelets” value was roughly 100 times and the “L-cystine crystal habit in the presence of additive” value (from here on “L-cystine crystal habit”) was “tapered hexagonal crystals”. In series [2] (setting [6]), the “Yield (%) = (collected mass by filtration, >11 μm)/(total mass added) × 100%” value (“Yield (%) =” below) is 92* %. Further, the “CME concentration needed for crystal growth inhibition similar to CDME” value in series [2] (bulk crystallization) is recorded as “more than twice that of CDME”.

In the case of `NCCSSCCN` [Cystamine, cystamine dihydrochloride, reference compound], in series [2] (setting [6]), the “Yield (%) =” value was determined as 30%. In addition, the “reduction of step velocity relative to the control” value in series [3] is listed as 36%. The compound further yielded a Step velocity in series [3] (0.5 g/L L-cystine, 25° C., static, without additive ~29 nm/min, independent of step height) of 18 ± 3 nm/min.

As for `CCOC(=O)[C@@H](N)CSSC[C@H](N)C(=O)OCC` [L-CDEE, Cystine Diethyl Ester], the “order of step roughening, corresponding to the trend in inhibition” value (shortened to “order of step roughening … in inhibition”) in series [4] is reported as “L-CDME>L-CDEE>L-CDIE>L-CDTE”.

Consider `CC(C)OC(=O)[C@@H](N)CSSC[C@H](N)C(=O)OC(C)C` [L-CDIE, L-Cystine Di-Isopropyl Ester], for which the “order of step roughening … in inhibition” value in series [4] is “L-CDME>L-CDEE>L-CDIE>L-CDTE”.

Take `CC(C)(C)OC(=O)[C@@H](N)CSSC[C@H](N)C(=O)OC(C)(C)C` [L-CDTE, Cystine Di-t-Butyl Ester]: the “order of step roughening … in inhibition” value in series [4] is “L-CDME>L-CDEE>L-CDIE>L-CDTE”.

For the compound `COC(=O)[C@@H](N)CS.Cl` [L-cysteine methyl ester, L-cysteine methyl ester hydrochloride, reference compound], in series [1] (setting [7]), the needle length is less than 50 μm and the needle width is less than 5 μm. The “L-cystine crystal habit” value in series [1] is “needles”. For the same compound, the “Yield (%) =” value in series [2] (10 mg/L additive, 0.7 g/L L-cystine, no additive 80±8%, hydrochloride) is given as 32%.

As to `N[C@@H](CS)C(=O)O` [L-cysteine, reference compound], the “L-cystine crystal habit” value in series [1] is on record as “Hexagonal L-cystine platelets”. Further, the “Yield (%) =” value in series [2] (10 mg/L additive, 0.7 g/L L-cystine, no additive 80±8%) was determined as 91%. In addition, the “influence on mass yield” value in series [2] (bulk crystallization, Table 1) is “did not influence the yield”.

As for `N[C@@H](CSSC[C@H](N)C(=O)O)C(=O)O` [L-cystine], in series [5], the “solubility of L-cystine in water” value was 400 to 700 µM.
